# Source: patent publication US7884136B2, “Modified-release formulations of a bupropion salt” (Biovail Laboratories International S.R.L., priority 2005, dated 2011)
# Assay: Shelf life stability program of bupropion HBr, 25° C./60% RH, 3 and 6 months, HPLC
# Format: physicochemical
# Conditions: 25° C./RH 60%; for Chromatographic purity B) (HPLC): 4) 2-N-(tert-Butyl)-aminopropiophenone / Chromatographic purity B) (HPLC): 5) single unknown impurity (each): LOQ 0.02%, LOD 0.002%; for Chromatographic purity A) (HPLC): 1) 3′-Chloropropiophenone / Chromatographic purity A) (HPLC): 3) 3′-Chlorobenzoic acid / Chromatographic purity A) (HPLC): 2) 3′-Chloro-2-bromopropiophenone: LOQ 0.05%; for Chromatographic purity A) (HPLC): 1) 3′-Chloropropiophenone / Chromatographic purity A) (HPLC): 3) 3′-Chlorobenzoic acid: LOD 0.01%; for Chromatographic purity A) (HPLC): 2) 3′-Chloro-2-bromopropiophenone: LOD 0.04%; for Description: specification white or almost white crystalline powder; for Assay (HPLC): on d.b.; for Chromatographic purity B) (HPLC): 6) total unknown impurities: sum of all impurity peak areas
# Protocol: The stability of bupropion HBr was studied over a longer term under conditions meant to approximate standard storage or shelf conditions. Samples were prepared in closed containers and subjected to long-term storage at 25° C.+2° C. and 60%+5% RH in a stability chamber. The samples were analyzed by HPLC prior to being placed in the stability chamber (time 0) and after 3 months and 6 months. The amounts of the main degradation products present at time 0 were compared with the amounts present at 3 months and 6 months. As shown in Table 77-79 three different batches of bupropion HBr were tested. As in Example 10 each sample was tested under two HPLC assay conditions to identify 6 impurities or groups of impurities as described in Example 10.
structure (smiles),measurement,setting,value
Br.CC(NC(C)(C)C)C(=O)c1cccc(Cl)c1 (stereo not drawn) [Bupropion•HBr D00894],Chromatographic purity (HPLC: A + B) Total impurities,3 months,0.1%
same,Water content (K.F.),3 months,0.05%
same,Chromatographic purity B) (HPLC): 4) 2-N-(tert-Butyl)-aminopropiophenone,3 months,4) 0.03%
same,Chromatographic purity B) (HPLC): 5) single unknown impurity (each),3 months,5) 0.04%
same,Chromatographic purity A) (HPLC): 1) 3′-Chloropropiophenone,3 months,1) n.q.
same,Chromatographic purity A) (HPLC): 3) 3′-Chlorobenzoic acid,3 months,3) n.q.
same,Chromatographic purity A) (HPLC): 2) 3′-Chloro-2-bromopropiophenone,3 months,2) n.d.
same,Description,3 months,conform
same,Chromatographic purity (HPLC: A + B) Total impurities,6 months,0.1%
same,Water content (K.F.),6 months,0.06%
same,Chromatographic purity B) (HPLC): 4) 2-N-(tert-Butyl)-aminopropiophenone,6 months,4) 0.05%
same,Chromatographic purity B) (HPLC): 5) single unknown impurity (each),6 months,5) n.q.
same,Chromatographic purity A) (HPLC): 1) 3′-Chloropropiophenone,6 months,1) 0.05%
same,Chromatographic purity A) (HPLC): 3) 3′-Chlorobenzoic acid,6 months,3) n.q.
same,Chromatographic purity A) (HPLC): 2) 3′-Chloro-2-bromopropiophenone,6 months,2) n.d.
same,Assay (HPLC),6 months,100.2%
same,Description,6 months,conform
same,Chromatographic purity (HPLC: A + B) Total impurities,9 months,n.q.
same,Water content (K.F.),9 months,0.05%
same,Chromatographic purity B) (HPLC): 4) 2-N-(tert-Butyl)-aminopropiophenone,9 months,4) n.d.
same,Chromatographic purity B) (HPLC): 5) single unknown impurity (each),9 months,5) n.q.
same,Chromatographic purity A) (HPLC): 1) 3′-Chloropropiophenone,9 months,1) n.q.
same,Chromatographic purity A) (HPLC): 3) 3′-Chlorobenzoic acid,9 months,3) n.q.
same,Chromatographic purity A) (HPLC): 2) 3′-Chloro-2-bromopropiophenone,9 months,2) n.d.
same,Description,9 months,conform
same,Chromatographic purity B) (HPLC): 6) total unknown impurities,9 months,6) n.q.
same,Chromatographic purity (HPLC: A + B) Total impurities,12 months,0.2%
same,Water content (K.F.),12 months,0.05%
same,Chromatographic purity B) (HPLC): 4) 2-N-(tert-Butyl)-aminopropiophenone,12 months,4) 0.05%
same,Chromatographic purity B) (HPLC): 5) single unknown impurity (each),12 months,5) 0.05%
same,Chromatographic purity A) (HPLC): 1) 3′-Chloropropiophenone,12 months,1) n.d.
same,Chromatographic purity A) (HPLC): 3) 3′-Chlorobenzoic acid,12 months,3) 0.05%
same,Chromatographic purity A) (HPLC): 2) 3′-Chloro-2-bromopropiophenone,12 months,2) n.d.
same,Assay (HPLC),12 months,99.6%
same,Description,12 months,conform
same,Chromatographic purity B) (HPLC): 6) total unknown impurities,12 months,6) 0.07%
same,Chromatographic purity (HPLC: A + B) Total impurities,time 0,0.1%
same,Water content (K.F.),time 0,0.05%
same,Chromatographic purity B) (HPLC): 4) 2-N-(tert-Butyl)-aminopropiophenone,time 0,4) 0.04%
same,Chromatographic purity B) (HPLC): 5) single unknown impurity (each),time 0,5) 0.04%
same,Chromatographic purity A) (HPLC): 1) 3′-Chloropropiophenone,time 0,1) n.d.
same,Chromatographic purity A) (HPLC): 3) 3′-Chlorobenzoic acid,time 0,3) n.q.
same,Chromatographic purity A) (HPLC): 2) 3′-Chloro-2-bromopropiophenone,time 0,2) n.d.
same,Assay (HPLC),time 0,99.6%
same,Description,time 0,conform
